Patent US20220105109A1, “METHODS OF TREATING COVID-19 AND COMPOSITIONS THEREFOR” (priority 2020, published 2022)
Like-named read-outs stand apart in the source and are kept apart here.

Columns and labels:
COVID-19 [1] = conditions: COVID-19 patients who had been taking famotidine; cited from earlier work
COVID-19 [2] = assay: Anecdotal case of a subject with COVID-19 taking ASA; type: in vivo; conditions: one person; at least 0.4 g ASA orally on at least a few days of the approximately 14-day illness; also 80 mg famotidine daily
[3] = cited from earlier work; for suppressing ACE-inhibitor induced cough: patients

Row | Structure (SMILES) | clinical outcomes (intubations, deaths, symptoms) vs patients not taking famotidine (COVID-19 [1]) | common respiratory symptoms and effects of COVID-19 (shortness of breath, cough) (COVID-19 [2]) | cough severity and cough frequency ([3]; 500 mg ASA daily) | patients with cough completely abolished ([3]; 500 mg ASA daily) | patients with cough significantly reduced ([3]; 500 mg ASA daily) | suppressing ACE-inhibitor induced cough ([3]; intermediate dose, 500 mg ASA daily) | suppressing ACE-inhibitor induced cough ([3]; low dose, 100 mg ASA daily)
1 | NC(N)=Nc1nc(CSCCC(N)=NS(N)(=O)=O)cs1 [famotidine] | better outcomes | – | – | – | – | – | –
2 | CC(=O)Oc1ccccc1C(=O)O [ASA, acetylsalicylic acid] | – | none of the common respiratory symptoms and effects of COVID-19 | Significant reductions | five of 14 | 13 of 14 | extremely effective | ineffective
